{
  "source": "patent US8318898B2",
  "about": "“Synthetic peptides for use as inhibitors of neurotransmitter secretion and as inducers of cellular relaxation” (Universite de Lausanne, priority 2005, dated 2012)",
  "key": {"Recombinant furin": {"target": "Recombinant furin (Homo sapiens, UniProt P09958)", "sequence (P09958 108-794)": "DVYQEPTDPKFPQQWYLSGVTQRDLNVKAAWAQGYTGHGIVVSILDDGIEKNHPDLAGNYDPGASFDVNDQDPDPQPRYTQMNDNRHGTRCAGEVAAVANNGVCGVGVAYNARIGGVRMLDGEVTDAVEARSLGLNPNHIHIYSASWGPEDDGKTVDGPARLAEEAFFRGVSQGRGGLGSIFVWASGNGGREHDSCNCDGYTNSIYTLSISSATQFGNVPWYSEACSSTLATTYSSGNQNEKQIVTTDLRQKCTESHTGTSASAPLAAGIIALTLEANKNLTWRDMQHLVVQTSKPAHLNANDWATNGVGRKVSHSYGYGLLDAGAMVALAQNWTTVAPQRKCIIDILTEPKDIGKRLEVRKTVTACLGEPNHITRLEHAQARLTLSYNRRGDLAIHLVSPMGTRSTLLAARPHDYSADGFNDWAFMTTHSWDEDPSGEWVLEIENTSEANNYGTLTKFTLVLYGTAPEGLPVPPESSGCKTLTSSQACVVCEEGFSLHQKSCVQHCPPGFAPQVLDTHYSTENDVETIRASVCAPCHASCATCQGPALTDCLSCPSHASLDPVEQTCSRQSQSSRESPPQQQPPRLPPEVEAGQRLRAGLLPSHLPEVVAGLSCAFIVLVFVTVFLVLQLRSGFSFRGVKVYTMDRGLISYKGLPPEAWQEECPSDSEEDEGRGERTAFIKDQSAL", "experiment": "biochemical", "format": "biochemical", "method": "To determine if the peptides described herein have an effect on the activity of PC enzymes which are involved in a condition or disorder such as fibrosis, the effect of the peptides on furin activity in vitro was measured as percent inhibition of cleavage of the furin substrate fluorogenic t-butyloxycarbonyl (Boc)-RVRR-7-amino-4-methylcoumarin (MCA).\nAll in vitro enzyme studies were performed at room temperature in a final volume of 50-100 μl in 96-well flat-bottom black plates. The buffer consisted of 100 mM HEPES, 1 mM CaCl2, 0.5% TritonX-100, and 1 mM 2-β-mercaptoethanol pH 7.5. Assays were performed using Boc-RVRR-MCA as fluorogenic substrate at 100 μM. Recombinant furin (0.8 U of activity) was incubated with Boc-RVRR-MCA in the presence or absence of varying concentrations of synthetic peptides D-9Rac/am (SEQ ID NO. 15), L-Bel1 (SEQ ID NO. 3), or L-9K (SEQ ID NO. 6). One unit of activity is defined as the amount of furin that can release 1 μmol of MCA from the fluorogenic Boc-RVRR-MCA per min at 30° C. The release of highly fluorescent 7-amino 4-methyl coumarin (MCA) from the Boc-RVRR-MCA was monitored by a spectrofluorometer instrument at excitation and emission wavelengths of 370 nm/460 nm. […]"}, "PC-12 cells [1]": {"test_system": "PC-12 cells", "experiment": "Subcellular localization of FITC-labeled peptide and colocalization with furin, confocal microscopy", "format": "cell-based, rat", "conditions": "1 and 100 μM", "text": "Two peptides of interest were FITC-labeled (Anaspec) to follow their interiorization on PC-12 cells (rat pheochromocytoma cells): L-Bel1 (SEQ ID NO. 3) and D-9Rac/am (SEQ ID NO. 15). After observation of L-Bel1-FITC conjugate interiorization, a monoclonal antibody for furin endoprotease was used for colocalization studies by confocal microscopy analysis.\nPC-12 cells were resuspended in Dulbecco's modified Eagle's medium (DMEM) high glucose (Gibco BRL, Life Technologies) containing 6% decomplemented horse serum, 6% decomplemented fetal bovine serum, supplemented with 25 U/ml penicillin-streptomycin-I-glutamine. Cells were seeded at 3×10^4 cells/well (200 μl), on 8-well microscope slide chamber (BD Biosciences), previously coated with collagen I (Roche Diagnostics) solution (0.0007%). After an overnight incubation at 37° C. in 5% CO2, cells were washed twice using fresh medium without serum, and then incubated in the presence or absence of the peptide, for the indicated time. […]\nThe fluorescent images were obtained by confocal laser scanning microscope (Zeiss LSM 510) with lasers of argon (488 nm), helium-neon 1 (543 nm), and enterprise (364 nm); connected to an inverted fluorescence microscope (Zeiss Axiovert 100 M), equipped with a 63×/1.4 PL APO chromate objective lens."}, "[2]": {"test_system": "smooth muscle cell line (A7r5)", "experiment": "Cell contraction/relaxation on silicon sheet, smooth muscle cells", "format": "cell-based", "method": "Lung biopsy was obtained from a Sprague Dawley rat, divided in small tissue slices, placed in culture dishes, and maintained then in organ culture in Dulbecco's modified Eagle's medium (GibcoBRL, Life Technologie) containing 10% decomplemented fetal bovine serum (FBS) supplemented with 100 U/ml penicillin, 100 μg/ml streptomycin, 4 mM I-glutamine, at 37° C., in 5% CO2. Cells were maintained during 2-3 weeks (2-8 passages), replacing medium frequently. At confluence, cells were detached from the culture dish with 0.125% trypsin-EDTA mixture (Sigma) for 10 minutes at 37° C., resuspended in complete medium, and seeded over silicon-coated tissue culture dishes at 3.5×10^3 cells/cm^2. One to two days after, cells were treated with the appropriate peptide at 10 or 50 μM, and peptide-induced cell contraction/relaxation effect followed for 1-3 hours by live videomicroscopy. A smooth muscle cell line (A7r5) kept in similar conditions was also used to follow the peptide-induced effects on these cells grown over silicon sheet.\nLive videomicroscopy was performed under controlled temperature and CO2 conditions using a Zeiss Axiovert 200M (Zeiss, Oberkochem, Germany), equipped with a spinning disk Nipkow confocal head (Yokogawa CSU10), Photometrics CoolSNAP-HQ CCD camera and Metamorph 6.0 acquisition software (Visitron Systems, Puchheim, Germany). […]"}, "PC-12 cells [3]": {"test_system": "PC-12 cells", "experiment": "Actin cytoskeleton organization, phalloidin-TRITC staining", "format": "cell-based, rat", "method": "Slides with PC-12 cells were prepared as stated previously for localization studies. Briefly, cells were exposed to FITC-labeled or unlabeled peptides, at various concentrations, for 30 minutes, fixed and then permeabilized. Subsequently, F-actin was fluorescently labeled with phalloidin-Tetramethyl Rhodamine Iso-Thiocyanate (TRITC) (Sigma Aldrich) conjugate, diluted on saponin buffer (0.25 μg/ml), and nuclear staining with DAPI dihydrochloride (Sigma Aldrich) (0.02 μg/ml), at room temperature for maximum 30 minutes. Finally, slides were mounted and sealed, and stored at 4° C. protected from light. The effect of the peptides to actin polymerization was analyzed by confocal microscopy, as described before."}},
  "data": [
    {"smiles": "N=C(N)NCCC[C@H](NC(=O)CNC(=O)[C@H](Cc1ccc(O)cc1)NC(=O)CN)C(=O)N[C@@H](CCCCN)C(=O)N[C@@H](CCCCN)C(=O)N[C@@H](CCCNC(=N)N)C(=O)N[C@@H](CCCNC(=N)N)C(=O)N[C@@H](CCC(N)=O)C(=O)N[C@@H](CCCNC(=N)N)C(=O)N[C@@H](CCCNC(=N)N)C(=O)N[C@@H](CCCNC(=N)N)C(=O)NCC(=O)O", "note": "[L-Tat]", "values": [
      {"measurement": "concentration for complete blockade of cleavage of Boc-RVRR-MCA by furin", "setting": "Recombinant furin", "result": 3.5, "unit": "µM"},
      {"measurement": "inhibition of in vitro furin activity (in words)", "setting": "Recombinant furin; Boc-RVRR-MCA 100 μM as substrate", "result": "inhibited to completion"},
      {"measurement": "Ki", "setting": "Recombinant furin; furin, Boc-RVRR-MCA substrate, read-out: Ki(app)", "result": 370, "unit": "nM"},
      {"measurement": "internalization of FITC-labeled peptide", "setting": "PC-12 cells [1]", "result": "crosses the basal membrane"},
      {"measurement": "relaxing effect on smooth muscle cells", "setting": "[2]", "result": "same effect"},
      {"measurement": "effect on actin content and organization at higher concentration", "setting": "PC-12 cells [3]; 100 μM", "result": "almost lost"},
      {"measurement": "effect on actin content and organization", "setting": "PC-12 cells [3]; 2 to 10 μM, 30 minutes, labeled or unlabeled", "result": "decreased actin content and organization"}
    ]}
  ]
}
